On the set-up of data set [1]: method as in doi:10.37547/TAJMSPR/Volume02Issue07-17. The note with it: cited from earlier work.
Data set [2] is described as follows: Metabolite identification of DH in rat plasma, urine, feces and rat liver microsomes by UHPLC-Q-Orbitrap MS/MS. It is filed as in vivo. The note with it: rat plasma. As to the method: For the analysis of DH metabolites, the same UHPLC-MS/MS system was used for the plasma analysis, and the ACQUIT UHPLC BEH C18 column was also utilized. Mobile phase A consisted of 0.1% formic acid in water (v/v), while mobile phase B comprised acetonitrile. The flow rate was maintained at 0.2 mL/min, with a 10 µL injection volume. The column temperature was kept constant at 35 °C, and the RS autosampler temperature was maintained at 10 °C. The gradient elution was as follows: 0–3 min(5%B), 3–11 min (7%B), 11–18 min (7%B), and 18–45 min (30%B). A full MS/dd MS^2 mode in positive heated electrospray ionization (HESI) with 140,000 (for MS) and 17,500 (for MS/MS) resolutions was used for the Q–Exactive Plus Orbitrap MS. The compounds identified in full MS/dd MS^2 mode will be scanned using PRM scanning. The following MS parameters were employed: AGC target, 1 × 10^6; Maximum IT, 100 ms; Spray voltage, 3.2 kV; Capillary temp, 320 °C; S-lens RF level, 55; HCD Energy 20, 40, and 60.
Rat liver microsomes were used for in vitro experiments to study DH metabolism in rats more quickly and easily. After that, the cofactors of phases I and II were added to create the phase I and phase II metabolic systems. The composition of the reagent kit and the procedure can be found in our previous work.
For the plasma study, 100 µL of plasma was obtained from rats at 0.5, 1, 2, and 4 h after medicine administration. Then, 300 µL of acetonitrile was added to the above plasma, vortexed for 1 min, and centrifuged for 7 min. The supernatant was collected, and the remaining liquid was dried using nitrogen gas at 40 °C. The blow-dried samples were re-dissolved in 100 µL methanol, sonicated for 1 min, and centrifuged for 7 min.
Urine was collected during the period spanning from 0 to 48 h following administration, with each period’s combined urine comprising 10 mL and 30 mL of acetonitrile added thereto. After a 10 min interval of sonication, the urine samples were transferred into 1.5 mL centrifuge tubes, vortexed for 1 min, and then centrifuged at a speed of 14,000 rpm for 10 min. Successively, the supernatant was merged and subjected to drying by nitrogen gas at 40 °C. The blow-dried samples were re-dissolved in 100 µL of methanol, sonicated for 1 min, and centrifuged for 7 min.
For the fecal study, feces were collected within 0–48 h following administration, dried to powder at room temperature in a shaded area, and combined to yield 8 mL per period, to which 40 mL of acetonitrile was added. Following 30 min of sonication, the samples were transferred to 1.5 mL centrifuge tubes and centrifuged at 14,000 rpm for 10 min. The supernatant was collected and dried with nitrogen at 40 °C before analysis via UHPLC-MS/MS. Before analysis, the blow-dried samples were re-dissolved in 100 µL of methanol, sonicated for 1 min, and centrifuged for 7 min.
Compound Discovery 3.3 was used for data processing. The MS spectrometric features mainly include retention time, exact mass, peak intensity, and fragment ions. The data processing mainly included selecting spectra, aligning retention times, creating pattern traces, creating fish traces, generating expected compounds, finding expected compounds, grouping expected compounds, fish scoring, and marking background compounds. The mass tolerance is less than 5 ppm.

Details of data set [3]: method as in doi:10.37547/TAJMSPR/Volume02Issue07-17. The note with it: rats, compared with verapamil; cited from earlier work.
The subject of data set [4] is membrane surface Na^+–Ca^2+ exchange. Further details: method as in doi:10.13005/bpj/1892. The note with it: decreases sarcoplasmic reticulum Ca2+ release; cited from earlier work.

Take `COc1cc2c(cc1OC)C(c1ccc(N(C)C)cc1)NCC2` (stereo not shown) [DH, N, N-dimethylaniline-heliamine]: the antiarrhythmic activity result in data set [1] is reported as “promising antiarrhythmic activity”. Moreover, in data set [2], the “Rat and LM* (matrices in which DH or the metabolite was detected)” value is listed as “P*, U*, F*, LM*”. Moreover, the Acute toxicity parameters entry in data set [3] is “more than six times lower than those of verapamil”. Besides, the “membrane surface Na+–Ca2+ exchange inhibition” value in data set [4] is “inhibitor”.

Source of the values: article PMC11434354, “Metabolic and Pharmacokinetic Profiling Studies of N, N-Dimethylaniline-Heliamine in Rats by UHPLC-Q-Orbitrap MS/MS” (Molecules, 2024).
